This passage reports EC50 results from patent US8129368B2, “5,6-dihydro-1H-pyridin-2-one compounds” (priority 2008, dated 2012).

Like-named read-outs stand apart in the source and are kept apart here.

For this experiment, the system named is HCV Huh-luc/neo-ET replicon cells. Description: Luciferase-Based HCV Replicon Assay (EC50 (1b)). Format: cell-based. The conditions noted are these: Hepatitis C virus, HCV Huh-luc/neo-ET replicon cells, 72 hours, luciferase activity. The method, then:
Luciferase-Based HCV Replicon Assay Protocol (EC50 (1b))
The cell culture component of the assay is performed essentially as described by Bartenschlager et al., Hepatology 2002, 35, 694-703, wherein exponentially growing HCV Huh-luc/neo-ET replicon cells were seeded at 6×10^3 cells/well in 96 well assay plate. 24 hours later the cells were treated with various concentrations of compound or combination of compounds in triplicate using both fixed ratios and checkerboard matrices of test agents and cultured for 72 hours. The luciferase activity in the wells was determined using Bright-Glo reagent (Promega, Madison, Wis.) with a luminometer (Wallac 1420 Multilabel HTS Counter Victor 2). The background control was replicon cells treated with 100 nM BILN-2061, an inhibitor of the HCV protease. % Inhibition was determined for each compound concentration in relation to the negative (no compound) control to calculate the EC50(1b).
Background: In antiviral work, replicon cells carry a viral genome segment that copies itself.

On to `Cc1cc(CN2C(=O)C(C3=NS(=O)(=O)c4cc(NS(C)(=O)=O)ccc4N3)=C(O)[C@@H]3C4CCC(CC4)[C@@H]32)ccc1F` [Example 11, N-{3-[(2S,7R)-3-(4-Fluoro-3-methyl-benzyl)-6-hydroxy-4-oxo-3-aza-tricyclo[6.2.2.0^2,7]dodec-5-en-5-yl]-1,1-dioxo-1,4-dihydro-1λ^6-benzo[1,2,4]thiadiazin-7-yl}-methanesulfonamide], for which the EC50 (read-out: EC50 (1b)) is under 5 nM and the EC50 (read-out: EC50(1b) concentration) was under 25 nM.
